The test system of assay [1] is vWF depolymerizing activity of BAECcm. As to the kind of experiment: Inhibitor profile of the vWF depolymerizing activity of BAEC conditioned medium. It is filed as biochemical. The settings on record: measured by agarose gel electrophoresis or collagen binding; BAECcm treated with agent.
Another assay concerns the target T1, purified human vWF (Homo sapiens, UniProt P04275+P07996).
T1 construct: Purified vWF from human plasma was obtained from the Baker Medical Research Institute; TSP-1 was purified to homogeneity from pooled outdated human platelet concentrates; tissue Baker Medical Research Institute, Melbourne (vWF); host or cells: human plasma (vWF); human platelet concentrates (TSP-1)
As to the kind of experiment: ELISA of salt-resistant complexes between TSP-1 and vWF. It is filed as binding. The text has this:
The first step in reduction of a disulfide bond is nucleophilic attack on the substrate disulfide bond by a reductant thiol which results in formation of a disulfide-linked complex between the substrate and the reductant. Release of the reductant from the complex requires nucleophilic attack on the disulfide linkage by another thiol, usually of the reductant. We reasoned that N-ethylmaleimide (NEM, Sigma, St. Louis, Mo.) might trap intermediate covalent complexes of TSP-1 and vWF by blocking the TSP-1 thiol responsible for separating TSP-1 and vWF. Maleimides react rapidly and specifically with cysteine thiols at neutral pH. This prediction was tested by measuring formation of salt-resistant complexes between TSP-1 and vWF and the effect of the thiol-blocking reagent, NEM, on complex formation.
Purified vWF from human plasma was obtained from the Baker Medical Research Institute, Melbourne and was purified according to Booth et at. (1984). The vWF (100 μl of 5 μg per ml in 0.1M NaHCO3, pH 8.3 buffer) was adsorbed to Nunc PolySorp 96 well plates overnight at 4° C. in a humid environment. […] Wells were washed three times with Hepes buffer and the peroxidase detected as described previously (Favaloro et al., 1991). […]

For assay [2] the following is noted: pH 8; cited from earlier work.
Another assay addresses purified vWF (Homo sapiens, UniProt P04275). Description: Effect of purified reductants or thiol reagents on the average multimer size of purified vWF (agarose gel electrophoresis). It is filed as biochemical. On the set-up: Purified vWF from human plasma was obtained from the Baker Medical Research Institute; tissue Baker Medical Research Institute, Melbourne; host or cells: human plasma. The settings on record: incubation of vWF with IAM or NEM alone.

Another assay has as its target T2, vWF (Homo sapiens, UniProt P04275).
T2 construct: from tissue; host or cells: plasma of a TTP patient (vWF); human platelet concentrates (TSP-1)
As to the kind of experiment: Reduction in average multimer size of vWF in TTP plasma (agarose gel, collagen binding/vWF antigen). It counts as biochemical. As to conditions: plasma from a patient with TTP. The method, then:
TTP plasma was incubated with 20 mM Hepes, 0.14M NaCl, 1 mM CaCl2, 1 mM MgCl2, pH 7.4 buffer, conditioned media of HMEC-1 cells or the Hepes buffer containing TSP-1 for 1 or 24 hours at 37° C. Aliquots of the reactions were diluted 10-fold in the Hepes buffer and assayed for collagen binding affinity and vWF antigen as described by Favaloro et al. (1991). On some occasions, aliquots of the reactions were resolved on 1% agarose gel electrophoresis (Ruggeri and Zimmerman, 1980), transferred to PVDF membrane (DuPont NEN, Boston, Mass.), blotted with 2 μg per ml of horse radish peroxidase conjugated anti-vWF polyclonal antibodies (DAKO Corporation, Carpinteria, Calif.) and visualized using chemiluminescence (DuPont NEN, Boston, Mass.).
TSP-1 is a major component of platelet α-granules which is secreted upon platelet activation and aggregation. TSP-1 was purified to homogeneity from pooled outdated human platelet concentrates (Murphy-Ullrich and Mosher. 1985; Hogg et al., 1997) and tested for vWF reductase activity. Buffers containing 0.1 mM CaCl2 were used throughout the chromatographic purification of TSP1. […] In particular, the very large multimers were lost (see bracket in FIG. 3A). […] TSP-1-mediated reduction in vWF multimer size was concentration- and time-dependent (FIG. 3B). Three different preparations of platelet TSP-1 had the same vWF reducing activity (not shown). It is noteworthy that the molar ratio of TSP-1 to vWF influenced the extent of reduction in vWF multimer size (FIG. 3B). The vWF reductase activity in endothelial cell conditioned medium is inhibited by EDTA. In accordance with this observation, chelation of Ca^2+ with EDTA ablated the vWF reductase activity of TSP-1 (not shown).

For another assay, the target named is T3, plasma vWF (Mus musculus, UniProt Q8CIZ8).
T3 construct: from tissue; host or cells: plasma of Balb c mice (in vivo)
T3 sequence (Q8CIZ8 764-2813 limits assumed): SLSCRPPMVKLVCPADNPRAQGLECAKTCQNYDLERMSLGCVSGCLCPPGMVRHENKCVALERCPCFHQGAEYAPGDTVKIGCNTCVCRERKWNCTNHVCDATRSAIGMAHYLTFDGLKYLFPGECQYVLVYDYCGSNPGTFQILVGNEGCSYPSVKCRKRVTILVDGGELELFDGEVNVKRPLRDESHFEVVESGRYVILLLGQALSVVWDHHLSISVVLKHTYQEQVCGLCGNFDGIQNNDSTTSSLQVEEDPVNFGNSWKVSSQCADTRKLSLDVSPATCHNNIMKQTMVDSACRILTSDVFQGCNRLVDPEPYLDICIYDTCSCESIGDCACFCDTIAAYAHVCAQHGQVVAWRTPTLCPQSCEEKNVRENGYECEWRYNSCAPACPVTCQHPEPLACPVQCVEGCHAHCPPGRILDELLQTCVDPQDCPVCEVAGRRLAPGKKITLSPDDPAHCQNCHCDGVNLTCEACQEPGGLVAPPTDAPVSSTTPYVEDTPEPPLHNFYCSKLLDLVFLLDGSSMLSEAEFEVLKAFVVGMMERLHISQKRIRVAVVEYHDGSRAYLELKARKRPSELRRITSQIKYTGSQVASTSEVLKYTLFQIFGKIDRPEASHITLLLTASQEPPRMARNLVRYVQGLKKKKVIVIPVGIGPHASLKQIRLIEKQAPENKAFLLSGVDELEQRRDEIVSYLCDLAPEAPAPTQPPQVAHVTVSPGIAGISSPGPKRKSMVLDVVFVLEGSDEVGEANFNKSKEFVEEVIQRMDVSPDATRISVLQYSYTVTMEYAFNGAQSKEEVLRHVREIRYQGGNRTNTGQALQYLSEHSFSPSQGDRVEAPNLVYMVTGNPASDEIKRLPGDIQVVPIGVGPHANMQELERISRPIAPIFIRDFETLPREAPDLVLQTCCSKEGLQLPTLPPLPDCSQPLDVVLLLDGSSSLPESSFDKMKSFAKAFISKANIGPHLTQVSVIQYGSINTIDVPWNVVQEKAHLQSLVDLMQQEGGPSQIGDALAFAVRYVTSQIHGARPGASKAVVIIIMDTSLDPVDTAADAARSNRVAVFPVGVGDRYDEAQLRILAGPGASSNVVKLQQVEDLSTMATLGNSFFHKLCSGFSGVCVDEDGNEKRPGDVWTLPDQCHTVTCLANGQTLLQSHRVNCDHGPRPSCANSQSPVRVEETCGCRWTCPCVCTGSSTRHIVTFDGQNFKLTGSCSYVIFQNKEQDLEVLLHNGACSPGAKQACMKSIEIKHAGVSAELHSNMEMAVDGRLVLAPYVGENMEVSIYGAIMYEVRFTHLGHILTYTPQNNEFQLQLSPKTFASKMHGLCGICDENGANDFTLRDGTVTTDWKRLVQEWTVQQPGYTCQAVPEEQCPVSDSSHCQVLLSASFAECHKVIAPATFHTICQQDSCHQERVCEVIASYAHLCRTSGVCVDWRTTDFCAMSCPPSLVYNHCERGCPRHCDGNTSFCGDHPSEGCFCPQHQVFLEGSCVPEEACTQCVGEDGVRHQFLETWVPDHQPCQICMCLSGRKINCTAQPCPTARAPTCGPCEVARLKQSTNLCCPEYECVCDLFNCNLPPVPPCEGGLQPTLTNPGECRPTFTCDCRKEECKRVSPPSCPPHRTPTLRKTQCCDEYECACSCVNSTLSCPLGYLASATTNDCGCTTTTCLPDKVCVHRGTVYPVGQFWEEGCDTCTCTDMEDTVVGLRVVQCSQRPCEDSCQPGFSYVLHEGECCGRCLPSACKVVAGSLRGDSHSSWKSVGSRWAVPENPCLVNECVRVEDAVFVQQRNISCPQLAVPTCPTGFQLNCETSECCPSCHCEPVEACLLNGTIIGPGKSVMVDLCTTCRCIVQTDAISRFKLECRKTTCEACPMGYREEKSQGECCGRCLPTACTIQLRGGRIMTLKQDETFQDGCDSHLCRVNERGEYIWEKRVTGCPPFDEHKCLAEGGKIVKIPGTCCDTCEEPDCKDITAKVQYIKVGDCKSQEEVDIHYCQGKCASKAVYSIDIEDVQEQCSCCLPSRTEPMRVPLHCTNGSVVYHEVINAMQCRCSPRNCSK
Description: Reduction in the average multimer size of vWF by TSP-1 in vivo. As to conditions: Balb c mice; 1 mg per kg intraperitoneal; plasma 24 hours later; p<0.05 vs buffer vehicle. The method, then:
The ability of TSP-1 to reduce the average multimer size of vWF in vivo was examined by administering TSP-1 to mice via intraperitoneal injection and measuring the consequence for the average multimer size of plasma vWF. Balb c mice (7 to 9 weeks of age) were administered either buffer vehicle (n=4) or 1 mg per kg purified human platelet TSP-1 (n=4) via 0.1 ml intraperitoneal injections. There were 2 male and 2 female mice in each group. Blood was collected by cardiac puncture into EDTA 24 hours later and the plasma was analyzed in triplicate for vWF antigen levels and collagen binding affinity.

With `CCN1C(=O)C=CC1=O` [NEM, N-ethylmaleimide], the “effect on vWF depolymerizing activity of BAECcm” value in assay [1] is “inactivated”. For the same molecule, the “fold more TSP-1 bound to vWF in the presence of NEM” value on purified human vWF (5 or 20 mM NEM, TSP-1 0 to 10 μg per ml, 30 minutes at room temperature, 1M NaCl wash) is “Up to 8 fold”. For the same molecule, the “second order rate constant of reaction with free thiols” value in assay [2] is ~10^4 M^−1s^−1. The “effect on average multimer size of vWF” value on purified vWF is given as “did not have any discernible effect”.
For the molecule thrombospondin-1 [TSP-1], the “effect on average multimer size of vWF” value in the assay with vWF (37° C., agarose gel electrophoresis) is given as “reduced the average multimer size of vWF”. In addition, the “effect on affinity of vWF for collagen” value with vWF (collagen binding relative to vWF antigen) is on record as “decrease in affinity of vWF for collagen”. For the same molecule, in the assay with purified human vWF (10 μg per ml TSP-1, wells blocked with BSA), the “binding of TSP-1 to wells not coated with vWF” value was “no binding”. In addition, in the assay with plasma vWF, the “CBA/vWFAg (average multimer size of plasma vWF)” value is 0.83±0.05.
